Experimental data from patent US4198504A, “[3-(Pyridinium)-7-(naphthyiridinyl carbonylamino)acetamido]cephalosporanic acid derivatives” (Bristol-Myers Company, priority 1978, dated 1980).
Where two headings read alike, the source gives them in different places.

Legend:
S. aureus = experiment: In vitro MIC, serial two-fold agar dilution, primary evaluation Gp (S. aureus, 6 strains); type: cell-based; conditions: CBPC = 100%, geometric mean of MICs
Description: (§1) Minimun inhibitory concentrations (MIC) were determined by the serial two-fold agar dilution method using Steers' apparatus on Mueller-Hinton agar plate against 31 test organisms for the primary screening and also against 64 strains of Pseudomonas aeruginosa for the secondary evaluation. The results are shown in Table 1 in terms of relative activity with respect to the standard compound CBPC (carbenicillin) which was set at 100%. In each group the calculation was based on the geometric mean of the observed MICs.
*GP = S. aureus (6 strains);

[1] = tested on: E. coli (9), Klebsiella sp. (2), Pr. mirabilis (1), Sal. enteritidis (1); experiment: In vitro MIC, serial two-fold agar dilution, primary evaluation Gn-I (E. coli, Klebsiella sp., Pr. mirabilis, Sal. enteritidis); type: cell-based; conditions: CBPC = 100%, geometric mean of MICs
Description: as §1
GnI = E. coli (9), Klebsiella sp. (2), Pr. mirabilis (1), Sal.

[2] = tested on: Ent. cloacae (3), Pr. vulgaris (1), Pr. morganii (1), S. marcescen (1); experiment: In vitro MIC, serial two-fold agar dilution, primary evaluation Gn-II (Ent. cloacae, Pr. vulgaris, Pr. morganii, S. marcescens); type: cell-based; conditions: CBPC = 100%, geometric mean of MICs
Description: as §1
GnII = Ent. cloacae (3), Pr. vulgaris (1), Pr. morganii (1), S. marcescen

Ps. aeruginosa = experiment: In vitro MIC, serial two-fold agar dilution, primary evaluation Ps (6 strains); type: cell-based; conditions: CBPC = 100%, geometric mean of MICs
Description: as §1
Ps. = Ps. aeruginosa (6).

Pseudomonas aeruginosa = experiment: In vitro MIC, serial two-fold agar dilution, secondary evaluation against Pseudomonas aeruginosa strains; type: cell-based; conditions: CBPC = 100%, geometric mean of MICs
Description: as §1

[3] = tested on: Staphylococcus aureus Smith; experiment: In vivo efficacy, experimental infection in mice, intramuscular treatment, Staphylococcus aureus Smith; set-up: species or system Staphylococcus aureus (infected mice); conditions: im, 120 h, read-out: PD50 Staphylococcus aureus Smith
Description: (§2) The in vivo efficacy was evaluated by intramuscular treatment against three kinds of experimental infection in mice.
(§3) The in vivo tests were carried out using the following three pathogenic organisms:
Staphylococcus aureus Smith
(§4) Mice were challenged intraperitoneally with approximately a 100×LD50 dose of the pathogens in a 5% mucin suspension. The mice were treated with test compound by I.M. route immediately after the bacterial challenge.

Escherichia coli Juhl = experiment: In vivo efficacy, experimental infection in mice, intramuscular treatment, Escherichia coli Juhl; set-up: species or system Escherichia coli (infected mice); conditions: im, 120 h, read-out: PD50 Escherichia coli Juhl
Description: as §2, §3, §4

[4] = tested on: Pseudomonas aeruginosa A9843; experiment: In vivo efficacy, experimental infection in mice, intramuscular treatment, Pseudomonas aeruginosa A9843; set-up: species or system Pseudomonas aeruginosa (infected mice); conditions: A9843, im, 120 h, read-out: PD50 Pseudomonas aeruginosa A9843
Description: as §2, §3
Pseudomonas aeruginosa A9843
as §4

[5] = Antibiotic blood levels in mice following intramuscular administration (paper disc-agar diffusion, Escherichia coli NIHJ as assay organism); type: in vivo; conditions: mouse, im, I.M., 20 mg./kg.; for half-life: read-out: Blood level, Half-life; for Cmax: read-out: Blood level, Peak Concentration
Description: Antibiotic blood levels were determined in mice following intramuscular administration of the test compounds at 20 mg./kg. The blood samples were collected from the orbital sinuses into heparinized capillary tubes at 15, 30, 60 and 120 minutes after administration. The antibiotic concentration was determined by the paper disc-agar diffusion method using Escherichia coli NIHJ as the assay organism.

[6] = I.M., 100×LD50 challenge i.p., 5 days

| SMILES | In vitro relative activity, primary evaluation Gp (6) (S. aureus; Mueller-Hinton agar) | In vitro relative activity, primary evaluation Gn-I (13) ([1]; Mueller-Hinton agar) | In vitro relative activity, primary evaluation Gn-II (6) ([2]; Mueller-Hinton agar) | In vitro relative activity, primary evaluation Ps (6) (Ps. aeruginosa; Mueller-Hinton agar) | In vitro relative activity, secondary, Pseudomonas aeruginosa (61-64) (Pseudomonas aeruginosa; 61-64 strains) | ED50 [3, 6] | ED50 (Escherichia coli Juhl; [6]) | ED50 [4, 6] | half-life [5] | Cmax [5] | In vitro relative activity, primary evaluation Gp (6) (S. aureus; Lot 2) | In vitro relative activity, primary evaluation Gn-I (13) ([1]; Lot 2) | In vitro relative activity, primary evaluation Gn-II (6) ([2]; Lot 2) | In vitro relative activity, primary evaluation Ps (6) (Ps. aeruginosa; Lot 2) | In vitro relative activity, secondary, Pseudomonas aeruginosa (61-64) (Pseudomonas aeruginosa; Lot 2) | ED50 ([3]; Lot 2, I.M.) | ED50 (Escherichia coli Juhl; Lot 2, I.M.) | ED50 ([4]; Lot 2, I.M.) |
| --- | --- | --- | --- | --- | --- | --- | --- | --- | --- | --- | --- | --- | --- | --- | --- | --- | --- | --- |
| O=C([O-])C1=C(C[n+]2cccc(C(=O)O)c2)CSC2C(NC(=O)[C@H](NC(=O)c3cnc4cccnc4c3O)c3ccc(O)c(O)c3)C(=O)N12 (stereo partly drawn) [BB-S608] | 13% | 53% | 14% | 975% | 1207% | 8.5 mg/kg | 1.4 mg/kg | 2.4 mg/kg | 50 min | 8500 ng/mL |  |  |  |  |  |  |  |  |
| O=C(O)C=Cc1ccc[n+](CC2=C(C(=O)[O-])N3C(=O)C(NC(=O)[C@H](NC(=O)c4cnc5cccnc5c4O)c4ccc(O)cc4)C3SC2)c1 (stereo partly drawn) [BB-S589, 7-[D-α-(4-Hydroxy-1,5-naphthyridine-3-carboxamido)-α-(4-hydroxyphenyl)acetamido]-3-[3-(2-carboxyvinyl)pyridinium]methyl-3-cephem-4-carboxylate] | 56% | 146% | 14% | 1449% | 1880% |  |  | 4 mg/kg | 60 min | 7000 ng/mL | 45% | 107% | 44% | 2900% | 2970% | 3.7 mg/kg | 1.9 mg/kg | 3.2 mg/kg |
| O=C([O-])C1=C(C[n+]2ccc(C(=O)O)cc2)CSC2C(NC(=O)[C@H](NC(=O)c3cnc4cccnc4c3O)c3ccc(O)cc3)C(=O)N12 (stereo partly drawn) [BB-S584, 7-[D-α-(4-Hydroxy-1,5-naphthyridine-3-carboxamido)-α-(4-hydroxyphenyl)acetamido]-3-(4-carboxypyridinium)methyl-3-cephem-4-carboxylate] | 22% | 166% | 14% | 725% | 1180% | 7.6 mg/kg | 4.2 mg/kg | 36 mg/kg | 81 min | 12500 ng/mL |  |  |  |  |  |  |  |  |
| O=C(O)CSc1cc[n+](CC2=C(C(=O)[O-])N3C(=O)C(NC(=O)[C@H](NC(=O)c4cnc5cccnc5c4O)c4ccc(O)cc4)C3SC2)cc1 (stereo partly drawn) [BB-S599, 7-[D-α-(4-Hydroxy-1,5-naphthyridine-3-carboxamido)-α-(4-hydroxyphenyl)acetamido]-3-(4-carboxymethylthiopyridinium)-methyl-3-cephem-4-carboxylate] | 35% | 260% | 83% | 2180% | 2010% | 2.2 mg/kg | 2.4 mg/kg | 8.4 mg/kg | 54 min | 7800 ng/mL |  |  |  |  |  |  |  |  |
| O=C([O-])C1=C(C[n+]2ccc(CCS(=O)(=O)O)cc2)CSC2C(NC(=O)[C@H](NC(=O)c3cnc4cccnc4c3O)c3ccc(O)cc3)C(=O)N12 (stereo partly drawn) [BB-S588, 7-[D-α-(4-Hydroxy-1,5-naphthyridine-3-carboxamido)-α-(4-hydroxyphenyl)acetamido]-3-(4-sulfoethylpyridinium)methyl-3-cephem-4-carboxylate] | 45% | 350% | 45% | 1767% | 2030% | 5 mg/kg | 1.56 mg/kg | 6.8 mg/kg | 59 min | 4400 ng/mL |  |  |  |  |  |  |  |  |
| O=C(O)C=Cc1ccc[n+](CC2=C(C(=O)[O-])N3C(=O)C(NC(=O)[C@H](NC(=O)c4cnc5cccnc5c4O)c4ccc(O)c(O)c4)C3SC2)c1 (stereo partly drawn) [BB-S610] | 16% | 57% | 14% | 656% | 491% | 17 mg/kg | 1.8 mg/kg | 2.8 mg/kg | 60 min | 6200 ng/mL |  |  |  |  |  |  |  |  |
| O=C([O-])C1=C(C[n+]2cccc(S(=O)(=O)O)c2)CSC2C(NC(=O)[C@H](NC(=O)c3cnc4cccnc4c3O)c3ccc(O)cc3)C(=O)N12 (stereo partly drawn) [BB-S587, 7-[D-α-(4-Hydroxy-1,5-naphthyridine-3-carboxamido)-α-(4-hydroxyphenyl)acetamido]-3-(3-sulfopyridinium)methyl-3-cephem-4-carboxylate] | 28% | 166% | 16% | 2378% | 3380% |  |  | 3.13 mg/kg | 40 min | 3000 ng/mL | 56% | 87% | 19% | 3200% | 3570% | 3.7 mg/kg | 2.4 mg/kg | 2.2 mg/kg |
| O=C(O)C=Cc1ccc[n+](CC2=C(C(=O)[O-])N3C(=O)C(NC(=O)[C@H](NC(=O)c4cnc5cccnc5c4O)c4ccccc4)C3SC2)c1 (stereo partly drawn) [BB-S603, 7-[D-α-(4-Hydroxy-1,5-naphthyridine-3-carboxamide)-α-phenyl-acetamido]-3-(3-carboxyvinylpyridinium)methyl-3-cephem-4-carboxylate] | 73% | 80% | 38% | 1150% | 1270% | 1.15 mg/kg | 2.2 mg/kg | 18 mg/kg | 44 min | 9000 ng/mL |  |  |  |  |  |  |  |  |
| NC(=O)c1cc[n+](CC2=C(C(=O)[O-])N3C(=O)C(NC(=O)[C@H](NC(=O)c4cnc5cccnc5c4O)c4ccc(O)cc4)C3SC2)cc1C(=O)O (stereo partly drawn) [BB-S592, 7-[D-α-(4-Hydroxy-1,5-naphthyridine-3-carboxamido)-α-(4-hydroxyphenyl)acetamido]-3-(4-carbamoyl-3-carboxypyridinium)methyl-3-cephem-4-carboxylate] | 56% | 121% | 11% | 594% | 695% | 4.6 mg/kg | 6.25 mg/kg | 38 mg/kg | 55 min | 12000 ng/mL |  |  |  |  |  |  |  |  |
| O=C([O-])C1=C(C[n+]2cccc(S(=O)(=O)O)c2)CSC2C(NC(=O)[C@H](NC(=O)c3cnc4cccnc4c3O)c3ccccc3)C(=O)N12 (stereo partly drawn) [BB-S607, 7-[D-α-(4-Hydroxy-1,5-naphthyridine-3-carboxamido)-α-phenylacetamido]-3-(3-sulfopyridinium)methyl-3-cephem-4-carboxylate] | 35% | 24% | 13% | 883% | 695% | 4.5 mg/kg |  | 23 mg/kg | 60 min | 10000 ng/mL |  |  |  |  |  |  |  |  |
